Data from patent US6433005B1, “Benzofuran and benzothiophene derivatives as anti-inflammatory agents” (Syntex (U.S.A.) LLC, priority 2000, dated 2002).

Columns and labels:
COX II = target: T1, COX II (Homo sapiens, UniProt P35354); assay: Inhibition of COX II in vitro, radiometric assay with partially purified enzyme; format: biochemical; conditions: 10 min preincubation, 20 micromolar [14C] arachidonic acid
T1 construct: made in house
T1 sequence (P35354 18-604): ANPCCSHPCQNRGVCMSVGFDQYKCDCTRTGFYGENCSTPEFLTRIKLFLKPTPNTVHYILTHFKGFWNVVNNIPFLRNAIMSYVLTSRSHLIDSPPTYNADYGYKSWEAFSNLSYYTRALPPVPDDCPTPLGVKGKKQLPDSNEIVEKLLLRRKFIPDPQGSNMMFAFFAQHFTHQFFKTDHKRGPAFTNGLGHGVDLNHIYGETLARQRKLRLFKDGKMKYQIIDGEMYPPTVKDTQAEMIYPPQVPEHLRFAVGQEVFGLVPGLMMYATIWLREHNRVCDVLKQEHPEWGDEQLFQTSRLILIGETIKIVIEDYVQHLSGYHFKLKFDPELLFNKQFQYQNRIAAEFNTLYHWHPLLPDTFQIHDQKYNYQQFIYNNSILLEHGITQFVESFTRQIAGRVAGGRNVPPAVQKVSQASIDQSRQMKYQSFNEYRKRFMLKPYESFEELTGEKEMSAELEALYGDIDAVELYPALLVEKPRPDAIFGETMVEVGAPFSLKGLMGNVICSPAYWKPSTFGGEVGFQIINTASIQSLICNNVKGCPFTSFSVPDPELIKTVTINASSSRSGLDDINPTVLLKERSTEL
Experimental: (§1) The COX I and COX II inhibitory activity of compounds of this invention in vitro was determined using partially purified COX I and COX II enzymes, prepared as described in J. Bamett et al., Biochim. Biophys. Acta, 1209,130-139 (1994).
(§2) COX I and COX II samples were diluted with Tris-HCl buffer (50 mM Tris-HCl, pH 7.9) containing 2 mM EDTA and 10% glycerol and reconstituted by incubating first with 2 mM phenol for 5 minutes and then with 1 micromolar hematin for an additional 5 minutes. 125 μL of the reconstituted COX I or COX II enzyme were preincubated for 10 minutes at room temperature in a shaking water bath with the compounds of the invention dissolved in 2-15 μL of DMSO or the carrier vehicles (control samples). The enzyme reaction was initiated by adding 25 μL of 1-[14 C] arachidonic acid (80,000-100,000 cpm/tube; 20 micromolar final concentration) and the reaction was allowed to continue for an additional 45 seconds. The reaction was terminated by adding 100 μL is of 2N HCl and 750 μL water. An aliquot (950 μL) of the reaction mixture was loaded onto a 1 mL C18 Sep-Pak column (J. T. Baker, Phillipsburg, N.J.) which had been previously washed with 2-3 mL methanol and equilibrated with 5-6 mL distilled water. Oxygenated products were quantitatively eluted with 3 mL of acetonitrile/water/acetic acid (50:50:0.1, v/v) and the radioactivity in the eluate determined in a scintillation counter. Compounds of this invention were active in this assay for COX II.
(§3) The COX inhibitory activities (expressed as IC50, the concentration causing 50% inhibition of the COX enzyme being assayed) of some exemplary compounds of the invention were: […]

COX I = target: T2, COX I (Homo sapiens, UniProt P23219); assay: Inhibition of COX I in vitro, radiometric assay with partially purified enzyme; format: biochemical; conditions: 10 min preincubation, 20 micromolar [14C] arachidonic acid
T2 construct: made in house
T2 sequence (P23219 24-599): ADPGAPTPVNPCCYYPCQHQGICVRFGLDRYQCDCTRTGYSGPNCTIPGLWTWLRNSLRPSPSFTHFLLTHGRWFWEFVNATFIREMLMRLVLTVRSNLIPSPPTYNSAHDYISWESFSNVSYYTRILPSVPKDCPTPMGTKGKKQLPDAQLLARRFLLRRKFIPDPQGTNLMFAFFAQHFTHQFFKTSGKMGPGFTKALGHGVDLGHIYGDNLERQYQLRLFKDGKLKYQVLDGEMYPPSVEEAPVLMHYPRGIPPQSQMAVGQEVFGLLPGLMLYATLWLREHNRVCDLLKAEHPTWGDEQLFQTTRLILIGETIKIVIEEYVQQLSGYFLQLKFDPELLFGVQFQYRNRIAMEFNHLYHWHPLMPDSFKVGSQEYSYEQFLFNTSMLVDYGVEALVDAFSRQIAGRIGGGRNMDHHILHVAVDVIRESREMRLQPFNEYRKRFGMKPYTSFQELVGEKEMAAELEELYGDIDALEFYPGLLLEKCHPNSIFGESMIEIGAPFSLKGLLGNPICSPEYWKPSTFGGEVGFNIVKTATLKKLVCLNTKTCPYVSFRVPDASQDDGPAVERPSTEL
Experimental: as §1, §2, §3

| IC50 (COX II) [nM] | IC50 (COX I) [µM] | SMILES |
| --- | --- | --- |
| < 1000 | > 120 | CS(=O)(=O)c1ccc2c(Sc3ccccc3Cl)c(C#N)sc2c1 [Cpd 17, 3-(2-chloro-phenylsulfanyl)-6-methanesulfonyl-benzo[b]thiophene-2-carbonitrile] |
| < 1500 | > 120 | CS(=O)(=O)c1ccc2c(Sc3ccc(Cl)cc3Cl)c(C#N)sc2c1 [Cpd 19, 3-(2,4-dichloro-phenylsulfanyl)-6-methanesulfonyl-benzo[b]thiophene-2-carbonitrile] |
| < 1500 | > 120 | CS(=O)(=O)c1ccc2c(Sc3ccc(F)cc3)c(C#N)sc2c1 [Cpd 26, 3-(4-fluoro-phenylsulfanyl)-6-methanesulfonyl-benzo[b]thiophene-2-carbonitrile] |
| < 1200 | > 120 | CS(=O)(=O)c1ccc2c(Sc3ccccc3F)c(C#N)sc2c1 [Cpd 30, 3-(2-fluoro-phenylsulfanyl)-6-methanesulfonyl-benzo[b]thiophene-2-carbonitrile] |
| < 1500 | > 120 | CCOc1ccc(Oc2c(C#N)sc3cc(S(C)(=O)=O)ccc23)cc1 [Cpd 31, 3-(4-ethoxy-phenoxy)-6-methanesulfonyl-benzo[b]thiophene-2-carbonitrile] |
